Results reported in patent US12630493B2, “Anti-inflammatory compounds” (priority 2018, dated 2026).
“Also recorded” adds a separate entry of the source.

Assays:
TNF-[…] = assay: kavain analog screening assay, TNF inhibition in BMM infected with P. gingivalis; type: cell-based, murine
Description: (§1) To identify compounds with strong anti-inflammatory properties, kavain analogs were tested in a screening assay based on TNF-[…] inhibition in BMM infected with P. gingivalis (FIG. 1B). This screen identified Kava-205Cl (5,5-dimethyl-3-oxocyclohex-1-en-1-yl 4-chlorobenzoate) and its methylated analog Kava-205Me (5,5-dimethyl-3-oxocyclohex-1-en-1-yl 4-methylbenzoate) (FIG. 1B) as effective inhibitors of TNF-[…] secretion (z=−0.99 and z=−1.07 respectively).

ACP5 = ACP5 gene expression in BMM infected with P. gingivalis; type: cell-based, murine
Description: (§2) P. gingivalis is able to induce sustained recruitment of immune cells such a neutrophils and T-lymphocytes, whose presence is associated with excessive inflammation and tissue destruction at infectious sites. To evaluate the effect of Kava-205Me on the secretion of chemokines and cytokines from BMM exposed to P. gingivalis, a multiplex analysis was performed that compared P. gingivalis infected cells with and without treatment with Kava-205Me. […] Moreover, the gene expression of ACP5, an osteoclast specific gene, was evaluated in BMM infected with P. gingivalis with or without Kava-205Me treatment.

TNF-α [1] = assay: TNF-α secretion, dose-response in THP-1 infected with P. gingivalis; type: cell-based, human
Description: (§3) See Amar, Salomon et al., Identification of a Kavain Analog with Efficient Anti-inflammatory Effects, [Currently unpublished], 2019. (Incorporated by reference in its entirety, herein). Specifically, in an in vitro assay of anti-inflammatory effects, murine macrophages (BMM) and THP-1 cells were infected with P. gingivalis (MOI=20:1) and a panel of cytokines were measured.
as §1

[2] = test system: IL-12, IFN-γ, MIP-1β, RANTES, IL-10, G-CSF and eotaxin; assay: multiplex analysis of chemokines and cytokines from BMM exposed to P. gingivalis; type: cell-based, murine
Description: as §3, §2

[3] = test system: infective arthritis (collagen-antibody + P. gingivalis); assay: infective arthritis murine model, P. gingivalis and AB peritoneal injection (Kava-205Me); type: in vivo, mice
Description: as §3
To evaluate the systemic effect of Kava-205Me, an infective arthritis was induced in mice by the combined insults of P. gingivalis and AB peritoneal injection. After 10 days, significant paw swelling was observed, confirming the establishment of joint inflammation and a destructive process (FIG. 5). […] This anti-inflammatory effect was confirmed histologically (FIG. 5C).

TNF-α [4] = assay: TNF-α secretion, dose-response in BMM infected with P. gingivalis; type: cell-based, murine
Description: as §3, §1

[5] = test system: P. gingivalis-induced calvarial destruction; assay: acute model of P. gingivalis-induced calvarial destruction; type: in vivo
Description: as §3
In an acute model of P. gingivalis infection, Kava-205Me was administered to evaluate its anti-inflammatory and pro-healing properties in vivo. In this calvarial model, injection of P. gingivalis induced formation of a cutaneous abscess characterized by dermal inflammation and bone destruction (FIG. 4).

[6] = test system: P. gingivalis+ type II collagen antibody induced periodontitis; conditions: P. gingivalis induced PD in a collagen antibody primed mouse model; cited from earlier work
TNF-α [7] = assay: serum TNF-α in mice injected with P. gingivalis-lipopolysaccharide; type: in vivo; conditions: mice injected with TLR 2/4 ligand P. gingivalis-LPS
[8] = test system: infective arthritis (P. gingivalis + ArthritoMab antibody cocktail); assay: infective arthritis murine model triggered by P. gingivalis and primed with collagen antibody cocktail (Kava-241); type: in vivo, DBA1/BO male mice; conditions: CIA cocktail, treated concomitantly
Description: Kava-241 (I-BC-241) is a compound derived from kavain and has been synthesized as described previously. In this example, we evaluated the systemic and articular effects Kava-241 in an infective arthritis murine model triggered by P. gingivalis bacterial inoculation and primed with collagen antibody cocktail (CIA) to induce joint inflammation and tissular destruction. Arthritis was induced in twenty-eight six-week-old, pathogen-free DBA1/BO male mice by two consecutive injections of ArthritoMab (AB) Antibody cocktail (CIA-MAB-2C, MD Bioproducts, Oakdale, MN, USA), the first injection of 7 mg at baseline, followed by a second injection of 4 mg at day 5. For P. gingivalis injected groups, 3 intraperitoneal injections of 5.10^8 bacteria/100 μl were performed at days 2, 8 and 11. Mice were sacrificed after 17 days. Clinical inflammation score and radiological analysis of the paws were performed continuously while histological assessment was obtained at sacrifice. Forepaws were evaluated to score arthritis using a visual qualitative assessment scoring as follows: 0) no paw swelling, 1) mild swelling, 2) moderate swelling, 3) severe swelling (22). Inflammation was also evaluated with X-rays examination.

[9] = test system: P. gingivalis+ type II collagen antibody induced periodontitis; assay: collagen antibody primed oral gavage model of periodontitis; type: in vivo, mice
Description: The effect of Kava-241 on periodontal destruction in a collagen antibody primed oral gavage model of periodontitis was evaluated. In this example, experimental periodontitis was induced by oral gavage of P. gingivalis+ type II collagen antibody (AB) in mice during 15 days. Mice were treated with Kava-241 concomitantly or prior to P. gingivalis gavage and compared to untreated mice. Comprehensive histomorphometric analyses were performed. […] The Kava-241 effect was associated with a reduction in inflammatory cell counts within soft tissues and an increase in fibroblasts.

[10] = test system: TLR-2/4, MAPKs related signal elements, LITAF; assay: signalling in bone-marrow derived macrophages infected with P. gingivalis; type: cell-based, murine; conditions: BMM infected with P. gingivalis
TNF-α [11] = conditions: Escherichia coli LPS-stimulated RAW cells; cited from earlier work
[12] = collagen-antibody (ArthriomAb)+P. gingivalis
[13] = P. gingivalis+ AG group, p<0.05

## CC1(C)CC(=O)C=C(OC(=O)c2ccc(Cl)cc2)C1 [Kava-205Cl, 5,5-dimethyl-3-oxocyclohex-1-en-1-yl 4-chlorobenzoate]
TNF-[…]
  TNF-[…] secretion, z: −0.99

## Cc1ccc(C(=O)OC2=CC(=O)CC(C)(C)C2)cc1 [Kava-205Me, 5,5-dimethyl-3-oxocyclohex-1-en-1-yl 4-methylbenzoate]
TNF-[…]
  TNF-[…] secretion, z: −1.07
ACP5
  ACP5 gene expression: reduced
TNF-α [1]; THP-1 cells, MOI=20:1, 10 to 200 μg/ml
  TNF-α secretion induced by P. gingivalis: significantly and dose-dependently reduced
TNF-α [1]; THP-1 infected with P. gingivalis, lowest tested dose 10 µg/ml
  TNF-[…] secretion: reduced significantly
[2]; BMM exposed to P. gingivalis, multiplex analysis
  concentrations of chemokines and cytokines (IL-12, IFN-γ, MIP-1β, RANTES, IL-10, G-CSF and eotaxin): significantly reduced
[2]; BMM infected with P. gingivalis, p<0.05
  secretion of IL-12, eotaxin, RANTES, IL-10 and interferon-γ: reduced
[3]; P. gingivalis-exposed animals
  number of TRAP positive multinucleated cells in contact with bone (osteoclastic activity of the infiltrate): reduction
[3]; animals exposed to P. gingivalis, histology
  inflammatory infiltrate in paw tissue sections: significant reduction
[3]; [12]
  joint destruction: reduce efficiently
  paw swelling: reduce efficiently
[3]; systemic administration, 32 day time point
  P. gingivalis-induced paw swelling: significantly decreased
TNF-α [4]; BMM infected with P. gingivalis, lowest tested dose 10 µg/ml
  TNF-[…] secretion: reduced significantly
TNF-α [4]; BMM, MOI=20:1, 10 to 200 μg/ml
  TNF-α secretion induced by P. gingivalis: significantly and dose-dependently reduced
[5]
  osteoclastic activity: reduced; also recorded: trend of reduction
[5]; P. gingivalis injection
  rate of healing: significantly improved; also recorded: significantly increased
[5]; histological level
  soft tissue inflammation: reduced significantly

## CC1(C)CC(=O)C=C(OC(=O)c2ccccc2)C1 [Kava-241, 5,5-dimethyl-3-oxocyclohex-1-en-1-yl benzoate]
[6]
  inflammation including alveolar bone loss: prevented
TNF-α [7]
  TNF-α in serum: decreased significantly
[8]
  clinical inflammatory score: reduced
  number of inflammatory cells within joint: decreased
  number of osteoclasts within joint: decreased
[9]; [13]
  reduced alveolar bone loss: 36%
  reduced epithelial down-growth: 72%
[9]; periodontitis model
  inflammatory cell counts within soft tissues: reduction
[9]; periodontitis model, soft tissues
  fibroblasts: increase
[10]
  LITAF: reduced
  MAPKs related signal elements: reduced
  TLR-2/4: reduced
TNF-α [11]
  TNF-α secretion: reduced
